Data on five molecules can be found in ChEMBL document CHEMBL4118287, “Polysaccharide deacetylases serve as new targets for the design of inhibitors against Bacillus anthracis and Bacillus cereus” (Bioorg Med Chem, 2018).

≈ marks a conversion by molar mass, not a printed value. Calls of active or inactive are those of the source.

Data set [1] deals with Bacillus anthracis. Put plainly: Inhibition of Bacillus anthracis 7702 BA1977 assessed as induction of lysozyme sensitivity at 50 uM incubated for 250 mins under shaking condition measured every 30 mins.
For data set [2], the target named is T1, Peptidoglycan-N-acetylglucosamine deacetylase BC_1974 (Bacillus cereus (strain ATCC 14579 / DSM 31 / JCM 2152 / NBRC 15305 /NCIMB 9373 / NRRL B-3711), UniProt Q81EJ6).
T1 sequence (Q81EJ6 whole entry): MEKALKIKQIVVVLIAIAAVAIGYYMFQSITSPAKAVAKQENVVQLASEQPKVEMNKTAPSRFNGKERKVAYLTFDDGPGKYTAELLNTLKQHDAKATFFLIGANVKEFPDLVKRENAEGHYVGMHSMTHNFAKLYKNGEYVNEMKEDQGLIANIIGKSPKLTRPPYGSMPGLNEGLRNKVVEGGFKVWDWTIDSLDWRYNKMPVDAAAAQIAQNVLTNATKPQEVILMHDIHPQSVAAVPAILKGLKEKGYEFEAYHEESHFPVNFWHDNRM
Put plainly: Inhibition of recombinant Bacillus cereus BC1974 expressed in Escherichia coli using GlcNAc5 as substrate measured after 5 mins by fluorescamine based fluorescence assay.

Data set [3] deals with T2, Peptidoglycan-N-acetylglucosamine deacetylase BC_1960 (Bacillus cereus (strain ATCC 14579 / DSM 31 / JCM 2152 / NBRC 15305 /NCIMB 9373 / NRRL B-3711), UniProt Q81EK9).
T2 sequence (Q81EK9 whole entry): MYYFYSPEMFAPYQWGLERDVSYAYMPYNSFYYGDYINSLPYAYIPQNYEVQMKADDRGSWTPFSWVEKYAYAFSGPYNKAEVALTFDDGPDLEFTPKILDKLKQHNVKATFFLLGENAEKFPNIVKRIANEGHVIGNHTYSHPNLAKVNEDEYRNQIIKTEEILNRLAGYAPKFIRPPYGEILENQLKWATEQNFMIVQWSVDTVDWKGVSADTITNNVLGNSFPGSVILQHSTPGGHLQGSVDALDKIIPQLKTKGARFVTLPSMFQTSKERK
As to the kind of experiment: Inhibition of recombinant Bacillus cereus BC1960 expressed in Escherichia coli using GlcNAc5 as substrate measured after 10 mins by fluorescamine based fluorescence assay.

The target in data set [4] is T1, Peptidoglycan-N-acetylglucosamine deacetylase BC_1974. Put plainly: Competitive inhibition of recombinant Bacillus cereus BC1974 expressed in Escherichia coli using varying levels of GlcNAc5 as substrate measured after 5 mins in presence of fluorescamine by Line-weaver burk plot analysis. The note with it: read-out: Ki(app).
The target of data set [5] is T2, Peptidoglycan-N-acetylglucosamine deacetylase BC_1960. Put plainly: Competitive inhibition of recombinant Bacillus cereus BC1960 expressed in Escherichia coli using varying levels of GlcNAc5 as substrate measured after 10 mins in presence of fluorescamine by Line-weaver burk plot analysis. The note with it: read-out: Ki(app).
Data set [6] has as its system Bacillus cereus. Put plainly: Antibacterial activity against Bacillus cereus ATCC 14579 measured after 16 hrs in absence of lysozyme. The format is functional. The note with it: ATCC 14579, 16 h.
Data set [7] relates to Bacillus anthracis. As to the kind of experiment: Antibacterial activity against Bacillus anthracis 7702 measured after 16 hrs in absence of lysozyme. The format is functional. The note with it: Bacillus anthracis, 7702, 16 h.
The test system of data set [8] is Bacillus cereus. Put plainly: Bactericidal activity against Bacillus cereus ATCC 14579 measured after 72 hrs in absence of lysozyme. The format is functional. The note with it: ATCC 14579, 72 h.
Data set [9] relates to Bacillus anthracis. Put plainly: Bactericidal activity against Bacillus anthracis 7702 measured after 72 hrs in absence of lysozyme. It is filed as functional. The note with it: Bacillus anthracis, 7702, 72 h.
Data set [10] has as its system Bacillus cereus. Put plainly: Antibacterial activity against Bacillus cereus ATCC 14579 measured after 16 hrs in presence of lysozyme. The format is functional. The note with it: ATCC 14579, 16 h.
For data set [11], the system named is Bacillus anthracis. As to the kind of experiment: Antibacterial activity against Bacillus anthracis 7702 measured after 16 hrs in presence of lysozyme. The format is functional. The note with it: Bacillus anthracis, 7702, 16 h.
Data set [12] relates to Bacillus cereus. Put plainly: Bactericidal activity against Bacillus cereus ATCC 14579 measured after 72 hrs in presence of lysozyme. It is filed as functional. The note with it: ATCC 14579, 72 h.
Data set [13] relates to Bacillus anthracis. As to the kind of experiment: Bactericidal activity against Bacillus anthracis 7702 measured after 72 hrs in presence of lysozyme. The format is functional. The note with it: Bacillus anthracis, 7702, 72 h.
In data set [14] the test system is Bacillus cereus. Put plainly: Ratio of MBC to MIC for Bacillus cereus ATCC 14579 measured after 16 hrs in absence of lysozyme. The format is functional.
The test system of data set [15] is Bacillus anthracis. Put plainly: Ratio of MBC to MIC for Bacillus anthracis 7702 measured after 16 hrs in absence of lysozyme. It is filed as functional.
Data set [16] has as its system Bacillus cereus. Put plainly: Ratio of MBC to MIC for Bacillus cereus ATCC 14579 measured after 16 hrs in presence of lysozyme. It is filed as functional.
The test system of data set [17] is Bacillus anthracis. Put plainly: Ratio of MBC to MIC for Bacillus anthracis 7702 measured after 16 hrs in presence of lysozyme. It is filed as functional.
In data set [18] the test system is Bacillus cereus. As to the kind of experiment: Antibacterial activity against Bacillus cereus ATCC 14579 assessed as production of longer chains of daughter cells at 40 ug/ml incubated 16 hrs under shaking condition by scanning electron microscopic analysis. The format is functional, organism-based.
In data set [19] the test system is Bacillus anthracis. Put plainly: Inhibition of Bacillus anthracis 7702 BA1977 assessed as induction of lysozyme sensitivity at 10 to 50 uM incubated for 250 mins under shaking condition measured every 30 mins.
Compound in data set [20]: O=C(NO)c1ccc(-c2cccc3ccccc23)cc1
Put plainly: Competitive inhibition of recombinant Bacillus cereus BC1974 expressed in Escherichia coli assessed as substrate Km at 20 uM using varying levels of GlcNAc5 as substrate measured after 5 mins in presence of fluorescamine by Line-weaver burk plot analysis.

Compound in data set [21]: O=C(NO)c1ccc(-c2cccc3ccccc23)cc1
As to the kind of experiment: Competitive inhibition of recombinant Bacillus cereus BC1974 expressed in Escherichia coli assessed as substrate Km at 40 uM using varying levels of GlcNAc5 as substrate measured after 5 mins in presence of fluorescamine by Line-weaver burk plot analysis.

Broadly, the IC50 is the concentration at which inhibition is half-maximal. As a reminder, the MIC is the lowest concentration that inhibits growth of the organism. One may read the MBC as the smallest concentration meeting the test's criterion for killing. Take `O=C(NO)c1ccc(-c2cccc3ccccc23)cc1`: the inhibition result with Bacillus anthracis [1] was “Active”. Moreover, the IC50 in [2] was determined as 43.3 µM; in data set [3] it was 132 µM. Moreover, the Ki in data set [4] came to 8.7 µM; in data set [5], 66 µM. The MIC in the data set on Bacillus cereus [6] stood at 6.58 µg/mL (≈ 25 µM); with Bacillus anthracis [7], 7.89 µg/mL (≈ 30 µM); with Bacillus cereus [10] it was 5.26 µg/mL; with Bacillus anthracis [11] it was 6.58 µg/mL. In addition, the minimal bactericidal concentration (MBC) came out at 8.23 µg/mL (≈ 31.3 µM) against Bacillus cereus [8], 8.23 µg/mL (≈ 31.3 µM) in the data set on Bacillus anthracis [9], 8.23 µg/mL in the data set with Bacillus cereus [12] and 8.23 µg/mL in the data set on Bacillus anthracis [13]. Also, the Ratio in the data set on Bacillus cereus [14], in the data set on Bacillus anthracis [15], in the data set with Bacillus cereus [16] and with Bacillus anthracis [17] was less than 4 throughout. In the data set on Bacillus cereus [18], the outcome was Active.
`O=C(NO)c1cccc(-c2ccccc2)c1`: the inhibition entry with Bacillus anthracis [19] is “inactive”.
Same read-out and setting: the value for `O=C(NO)c1cccc(Oc2ccccc2)c1` was “inactive”.
For `O=C(NO)c1cccc2ccccc12`, the inhibition entry in the data set on Bacillus anthracis [19] is “inactive”.

B1: Peptidoglycan-N-acetylglucosamine deacetylase BC_1974 (Bacillus cereus (strain ATCC 14579 / DSM 31 / JCM 2152 / NBRC 15305 /NCIMB 9373 / NRRL B-3711)), Q81EJ6 (protein)
chain: MEKALKIKQIVVVLIAIAAVAIGYYMFQSITSPAKAVAKQENVVQLASEQPKVEMNKTAPSRFNGKERKVAYLTFDDGPGKYTAELLNTLKQHDAKATFFLIGANVKEFPDLVKRENAEGHYVGMHSMTHNFAKLYKNGEYVNEMKEDQGLIANIIGKSPKLTRPPYGSMPGLNEGLRNKVVEGGFKVWDWTIDSLDWRYNKMPVDAAAAQIAQNVLTNATKPQEVILMHDIHPQSVAAVPAILKGLKEKGYEFEAYHEESHFPVNFWHDNRM
As a reminder, the Km is the concentration of substrate that gives half-maximal velocity. Consider B1, for which the Km in [20] is 22.8 µM; in [21], 42 µM.
